Laboratory results: patent US20070054899A1 (priority 2003, published 2007)
Like-named read-outs stand apart in the source and are kept apart here. Values belong to the compound of their own block, whether it stands above or below them.

Experiments:
[1] = system: uterine hypertrophy induced by androstenedione; assay: Activity in vivo: inhibition of uterine hypertrophy induced by androstenedione; set-up: species or system rat (Sprague-Dawley); details: Rattus norvegicus, 96 h, immature female rats, androstenedione 30 mg/kg for 4 days, read-out: % inhibition to doses (μg/Kg); for inhibition in vivo at 0.001 mg/kg: dose 1 μg/Kg; for inhibition in vivo at 0.01 mg/kg: dose 10 μg/Kg; for inhibition in vivo at 0.1 mg/kg: dose 100 μg/Kg; for inhibition in vivo at 1 mg/kg: dose 1000 μg/Kg; for inhibition in vivo at 0.003 mg/kg: dose 3 μg/Kg
Protocol: The activity in vivo of aromatase inhibition by compounds of formula (I) according to the invention has been tested according to the model established by Bharnagar et al. (1990).
In general, immature female rats of the Sprague-Dawley line of a weight ranging from 40 to 50 g have been treated with a dose of androstenedione at 30 mg/kg for 4 days, in the absence or in the presence of doses of various compounds of formula (I).
Four hours after administration of an aromatase inhibitor, the rats were sacrificed. Their uteruses were removed, cleared of adhering fat and conjunctive tissue, next the uteruses were weighed (wet weight). The dry weight of the uteruses was determined the following day after a step of drying for one night at 80° C.

[2] = molecular target: T1, aromatase (microsomes from the human placenta) (Homo sapiens, UniProt P11511); assay: Aromatase inhibition in vitro, tritiated water method, human placenta microsomes; assay type: biochemical
T1 construct: using microsomes from the human placenta as source of the enzyme; from tissue; host or cells: human placenta microsomes
T1 sequence (P11511 1-503): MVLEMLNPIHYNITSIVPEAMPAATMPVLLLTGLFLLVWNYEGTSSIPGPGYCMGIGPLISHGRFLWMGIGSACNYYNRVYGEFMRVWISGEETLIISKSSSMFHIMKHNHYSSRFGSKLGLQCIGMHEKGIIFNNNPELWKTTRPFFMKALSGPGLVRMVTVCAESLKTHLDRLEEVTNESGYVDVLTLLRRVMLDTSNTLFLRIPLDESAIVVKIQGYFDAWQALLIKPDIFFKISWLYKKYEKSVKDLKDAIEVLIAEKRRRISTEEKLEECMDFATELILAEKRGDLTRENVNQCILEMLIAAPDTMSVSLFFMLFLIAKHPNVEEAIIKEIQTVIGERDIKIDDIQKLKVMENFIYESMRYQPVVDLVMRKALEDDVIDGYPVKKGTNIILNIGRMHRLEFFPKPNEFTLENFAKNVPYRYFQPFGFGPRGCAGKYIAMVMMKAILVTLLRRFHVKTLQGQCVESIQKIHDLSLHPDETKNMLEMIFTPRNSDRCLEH

aromatase (e) = aromatase (e) (UniProt O46512); assay type: biochemical; details: value marked (e); read-out: Activity In vitro IC50(nM), (e)
[3] = value without (h)/(e) mark, read-out: Activity In vitro IC50
[4] = value marked (h), read-out: Activity In vitro IC50(nM), (h)

Sequence of aromatase (e) (O46512 whole entry): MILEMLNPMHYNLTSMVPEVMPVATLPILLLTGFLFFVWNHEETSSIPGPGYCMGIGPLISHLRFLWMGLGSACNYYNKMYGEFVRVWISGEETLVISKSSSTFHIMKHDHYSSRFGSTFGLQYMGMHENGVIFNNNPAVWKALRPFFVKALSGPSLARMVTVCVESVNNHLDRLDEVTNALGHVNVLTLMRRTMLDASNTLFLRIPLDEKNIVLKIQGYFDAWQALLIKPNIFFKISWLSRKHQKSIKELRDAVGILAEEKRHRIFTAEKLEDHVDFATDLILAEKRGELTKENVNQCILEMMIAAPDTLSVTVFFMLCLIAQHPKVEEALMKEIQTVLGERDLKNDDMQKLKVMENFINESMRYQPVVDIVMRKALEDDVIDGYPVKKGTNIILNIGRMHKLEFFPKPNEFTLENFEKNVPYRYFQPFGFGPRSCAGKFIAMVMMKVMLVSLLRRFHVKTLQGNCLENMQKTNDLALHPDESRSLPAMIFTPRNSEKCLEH

Compound: CN1C(=O)COc2ccc(C(c3ccc(C#N)cc3)n3cncn3)cc21 (stereo not shown) [PCH223]
inhibition in vivo at 0.001 mg/kg [1]: 4%
inhibition in vivo at 0.01 mg/kg [1]: 22%
inhibition in vivo at 0.1 mg/kg [1]: 66%

Compound: Cn1c(=O)sc2cc(C(c3ccccc3)n3ccnc3)ccc21 (racemic) [(+/−)PCH28, 6-[1H-Imidazol-1-yl(phenyl)methyl]-3-methyl-1,3-benzothiazol-2(3H)-one]
IC50 (aromatase (e)): 23.4 nM
inhibition in vivo at 0.01 mg/kg [1]: 13%
inhibition in vivo at 0.1 mg/kg [1]: 25%
inhibition in vivo at 1 mg/kg [1]: 75%

Compound: Cn1c(=O)oc2cc(C(c3ccccc3)n3cncn3)ccc21 (stereo not shown) [PCH20, 3-Methyl-6-[phenyl(1H-1,2,4-triazol-1-yl)methyl]-1,3-benzoxazol-2(3H)-one]
IC50 [2, 4]: > 3000 nM

Compound: Cn1c(=O)sc2cc(C(c3ccccc3)n3ccnc3)ccc21 (racemic) [(E1)PCH28]
IC50 (aromatase (e)): 24.9 nM

Compound: Cn1c(=O)oc2cc(C(c3cccnc3)n3ccnc3)ccc21 (stereo not shown) [PCH116]
IC50 [2, 4]: 33.7 nM
IC50 (aromatase (e)): 34.6 nM

Compound: O=c1[nH]c2ccc(C(c3ccccc3)n3ccnc3)cc2s1 (stereo not shown) [PCH100, 6-[1H-Imidazol-1-yl(phenyl)methyl]-1,3-benzothiazol-2(3H)-one]
IC50 [2, 4]: 33.7 nM
IC50 (aromatase (e)): 34 nM

Compound: Cn1c(=O)sc2cc(C(c3ccc(C#N)cc3)n3cnnn3)ccc21 (stereo not shown) [PCH248]
IC50 [2, 3]: 11.8 nM

Compound: Cn1c(=O)sc2cc(C(c3ccc(C#N)cc3)n3ccnc3)ccc21 (racemic) [PCH165 (+/−) CD4]
IC50 [2, 3]: 4.54 nM
inhibition in vivo at 0.001 mg/kg [1]: 22%
inhibition in vivo at 0.01 mg/kg [1]: 23%
inhibition in vivo at 0.1 mg/kg [1]: 66%

Compound: Cn1c(=O)sc2ccc(C(c3ccccc3)n3cncn3)cc21 (stereo not shown) [PCH134]
IC50 [2, 3]: 179 nM

Compound: Cn1c(=O)oc2cc(C(c3ccc(C#N)cc3)n3ccnc3)ccc21 (stereo not shown) [PCH27]
IC50 [2, 4]: 4.62 nM
IC50 (aromatase (e)): 72 nM

Compound: N#Cc1ccc(C(c2ccc(C#N)cc2)n2cncn2)cc1 [Letrozole, reference compound]
inhibition in vivo at 0.001 mg/kg [1]: 66%
inhibition in vivo at 0.003 mg/kg [1]: 74%
inhibition in vivo at 0.005 mg/kg ([1]; dose 5 μg/Kg): 91%
inhibition in vivo at 0.01 mg/kg [1]: 90%

Compound: CN1C(=O)CSc2cc(C(c3ccc(C#N)cc3)n3cncn3)ccc21 (stereo not shown) [PCH231]
IC50 [2, 3]: 56.6 nM

Compound: Cn1c(=O)oc2cc(C(c3ccncc3)n3ccnc3)ccc21 (stereo not shown) [PCH30]
IC50 [2, 4]: 38 nM
IC50 (aromatase (e)): 477 nM

Compound: CN1C(=O)COc2cc(C(c3ccccc3)n3ccnc3)ccc21 (stereo not shown) [PCH19, 4-Methyl-7-[1H-imidazol-1-yl(phenyl)methyl]-1,4-benzoxazin-3(4H)-one]
IC50 [2, 4]: 52.5 nM
IC50 (aromatase (e)): 59.9 nM

Compound: Cn1c(=O)sc2cc(C(c3ccccc3)n3ccnc3)ccc21 (racemic) [(E2) PCH28]
IC50 (aromatase (e)): 22.6 nM

Compound: Cn1c(=O)oc2ccc(C(c3ccccc3)n3ccnc3)cc21 (stereo not shown) [PCH31, 3-Methyl-5-[1H-imidazol-1-yl-(phenyl)methyl]-1,3-benzoxazol-2(3H)-one]
IC50 [2, 4]: 46.6 nM
IC50 (aromatase (e)): 50.1 nM

Compound: O=c1[nH]c2ccc(C(c3ccccc3)n3ccnc3)cc2o1 (stereo not shown) [PCH10, 6-[1H-Imidazol-1-yl(phenyl)methyl]-1,3-benzoxazol-2(3H)-one]
IC50 [2, 4]: 84.6 nM
IC50 (aromatase (e)): 103 nM

Compound: Cn1c(=O)oc2cc(C(c3ccccc3)n3ccnc3)ccc21 (stereo not shown) [AL22, 6-[1H-Imidazol-1-yl(phenyl)methyl]-3-methyl-1,3-benzoxazol-2(3H)-one]
IC50 [2, 4]: 320 nM
IC50 (aromatase (e)): 340 nM

Compound: N#Cc1cccc(C(c2ccc3[nH]c(=O)oc3c2)n2ccnc2)c1 (stereo not shown) [PCH119]
IC50 [2, 4]: 25.1 nM
IC50 (aromatase (e)): 27.7 nM

Compound: N#Cc1ccc(C(c2ccc3c(c2)SCC(=O)N3)n2ccnc2)cc1 (stereo not shown) [PCH229]
IC50 [2, 3]: 13.8 nM
inhibition in vivo at 0.01 mg/kg [1]: 11%
inhibition in vivo at 0.1 mg/kg [1]: 42%
inhibition in vivo at 1 mg/kg [1]: 83%

More lines, main results first:

IC50 [2, 3]: 4.04 nM
Compound: N#Cc1ccc(C(c2ccc3[nH]c(=O)sc3c2)n2ccnc2)cc1 (stereo not shown) [PC11215]
inhibition in vivo at 0.001 mg/kg [1]: 0%
inhibition in vivo at 0.01 mg/kg [1]: 56%
inhibition in vivo at 0.1 mg/kg [1]: 90%

IC50 [2, 3]: 19.9 nM
Compound: COc1cc2oc(=O)[nH]c2cc1C(c1ccc(C#N)cc1)n1ccnc1 (stereo not shown) [GCA36]

IC50 [2, 3]: 3.99 nM
Compound: CCn1c(=O)sc2cc(C(c3ccc([N+](=O)[O-])cc3)n3cncn3)ccc21 (stereo not shown) [PCH243, 3-Ethyl-6-[(4-nitrophenyl)(1H-1,2,4-triazol-1-yl)methyl]-1,3-benzothiazol-2(3H)-one]

IC50 [2, 3]: 8.71 nM
Compound: Cn1c(=O)sc2cc(C(c3ccc(C#N)cc3)n3cncn3)ccc21 (stereo not shown) [PCH158]
inhibition in vivo at 0.001 mg/kg [1]: 54%
inhibition in vivo at 0.01 mg/kg [1]: 56%

IC50 [2, 3]: 3.05 nM
Compound: Cn1c(=O)sc2cc(C(c3ccc([N+](=O)[O-])cc3)n3cncn3)ccc21 (stereo not shown) [PCH259]
inhibition in vivo at 0.001 mg/kg [1]: 31%
inhibition in vivo at 0.01 mg/kg [1]: 63%
inhibition in vivo at 0.1 mg/kg [1]: 88%

IC50 [2, 3]: 17.1 nM
Compound: O=c1[nH]c2cc(C(c3ccc(Cl)cc3)n3cncn3)ccc2o1 (stereo not shown) [PCH195]

IC50 [2, 3]: 328 nM
Compound: 5-[(4-Cyanophenyl)(1H-1,2,4-triazol-1-yl)methyl]-6-methoxy-1,3-benzoxazol-2(3H)-one [GCA37]

IC50 [2, 3]: 4.49 nM
Compound: CCn1c(=O)sc2cc(C(c3ccc(C#N)cc3)n3cncn3)ccc21 (stereo not shown) [PCH260]
inhibition in vivo at 0.001 mg/kg [1]: 32%
inhibition in vivo at 0.01 mg/kg [1]: 50%
inhibition in vivo at 0.1 mg/kg [1]: 90%

IC50 [2, 3]: 55.1 nM
Compound: O=C1CSc2cc(C(c3ccccc3)n3ccnc3)ccc2N1 (stereo not shown) [PCH227, 7-[1H-Imidazol-1-yl(phenyl)methyl]-1,4-benzothiazin-3(4H)-one]

IC50 [2, 3]: 4.29 nM
Compound: CCn1c(=O)sc2cc(C(c3ccc(C#N)cc3)n3ccnc3)ccc21 (stereo not shown) [PCH241]
inhibition in vivo at 0.001 mg/kg [1]: 18%
inhibition in vivo at 0.003 mg/kg [1]: 37%
inhibition in vivo at 0.01 mg/kg [1]: 16%

IC50 [2, 3]: 24.9 nM
Compound: Cn1c(=O)oc2ccc(C(c3ccc(Cl)cc3)n3cncn3)cc21 (stereo not shown) [PCH196]

IC50 [2, 3]: 74.4 nM
Compound: O=C1COc2cc(C(c3ccccc3)n3ccnc3)ccc2N1 (stereo not shown) [PCH211]

IC50 [2, 3]: 178 nM
Compound: O=c1[nH]c2cc(C(c3ccccc3)n3cncn3)ccc2s1 (stereo not shown) [PCH132]

IC50 [2, 3]: 5.83 nM
Compound: N#Cc1ccc(C(c2ccc3oc(=O)[nH]c3c2)n2ccnc2)cc1 (stereo not shown) [PC11128]
inhibition in vivo at 0.001 mg/kg [1]: 29%
inhibition in vivo at 0.01 mg/kg [1]: 29%
inhibition in vivo at 0.1 mg/kg [1]: 53%

IC50 [2, 3]: 8.81 nM
Compound: Cn1c(=O)sc2cc(C(c3ccc(C#N)cc3)n3ccnc3)ccc21 (racemic) [PCH165 (+)CD4]

IC50 [2, 3]: 4.94 nM
Compound: Cn1c(=O)sc2cc(C(c3ccc(C#N)cc3)n3ccnc3)ccc21 (racemic) [PCH165 (−)CD4]

IC50 [2, 3]: 26.8 nM
Compound: O=c1[nH]c2cc(C(c3ccncc3)n3ccnc3)ccc2o1 (stereo not shown) [PC11129]

IC50 [2, 3]: 5.64 nM
Compound: CN1C(=O)COc2ccc(C(c3ccccc3)n3ccnc3)cc21 (stereo not shown) [PCH213]
inhibition in vivo at 0.001 mg/kg [1]: 0%
inhibition in vivo at 0.01 mg/kg [1]: 3%
inhibition in vivo at 0.1 mg/kg [1]: 5%

IC50 [2, 3]: 31.7 nM
Compound: Cn1c(=O)sc2cc(C(c3cccc(C#N)c3)n3cncn3)ccc21 (stereo not shown) [PCH258]

IC50 [2, 3]: 3.44 nM
Compound: CN1C(=O)COc2ccc(C(c3ccc(C#N)cc3)n3ccnc3)cc21 (stereo not shown) [PCH222]
inhibition in vivo at 0.001 mg/kg [1]: 0%
inhibition in vivo at 0.003 mg/kg [1]: 22%
inhibition in vivo at 0.01 mg/kg [1]: 32%

IC50 [2, 4]: > 2000 nM
Compound: Cn1c(=O)oc2cc(C(c3ccc(Cl)cc3)n3ccnc3)ccc21 (stereo not shown) [PCH15, 6-[(4-Chlorophenyl)(1H-imidazol-1-yl)methyl]-3-methyl-1,3-benzoxazol-2(3H)-one]

IC50 [2, 3]: 1810 nM
Compound: Cn1c(=O)oc2ccc(C(c3ccccc3)n3cncn3)cc21 (stereo not shown) [PCH183, 3-Methyl-5-[1H-1,2,4-triazol-1-yl(phenyl)methyl]-1,3-benzoxazol-2(3H)-one]

IC50 [2, 3]: 5.38 nM
Compound: CN1C(=O)CSc2cc(C(c3ccc(C#N)cc3)n3ccnc3)ccc21 (stereo not shown) [PCH240]

IC50 [2, 3]: 65.5 nM
Compound: O=C1COc2ccc(C(c3ccccc3)n3ccnc3)cc2N1 (stereo not shown) [PCH218]

IC50 [2, 3]: 18.7 nM
Compound: Cn1c(=O)oc2ccc(C(c3ccc(Cl)cc3)n3cncn3)cc21 (stereo not shown) [PCH160, 5-[(4-Chlorophenyl)(1H-1,2,4-triazol-1-yl)methyl]-3-methyl-1,3-benzoxazol-2(3H)-one]

IC50 [2, 3]: 34.8 nM
Compound: N#Cc1ccc(C(c2ccc3c(c2)SCC(=O)N3)n2cncn2)cc1 (stereo not shown) [PCH230]
inhibition in vivo at 0.01 mg/kg [1]: 2%
inhibition in vivo at 0.1 mg/kg [1]: 22%
inhibition in vivo at 1 mg/kg [1]: 74%

IC50 [2, 3]: 9.9 nM
Compound: N#Cc1ccc(C(c2ccc3c(c2)NC(=O)CO3)n2ccnc2)cc1 (stereo not shown) [PCH225]

IC50 [2, 4]: > 3000 nM
Compound: Cn1c(=O)oc2cc(C(c3ccccc3)n3cnnc3)ccc21 (stereo not shown)
